pEC50: −log10 of the molar value. Several values for one entry are separate records, joined by “and”; a condition that tells them apart may be missing. Equal entries are not always repeated. Where two headings read alike, the source gives them in different places.
Assays:
[1] = tested on: MRC-5 fibroblasts; test: CellTiter-Glo cytotoxicity assay, MRC-5; format: cell-based, human; conditions: uninfected MRC-5, ± standard deviation; for Yield inhibition MRC-5 TD50: CellTiter-Glo cytotoxicity assay after 5 d exposure to drugs; for Spread inhibition MRC-5 TD50: CellTiter-Glo cytotoxicity assay after 14 d exposure to drugs
[2] = tested on: HCMV; test: HCMV inhibition across spread inhibition and yield reduction assays; conditions: TD50 versus anti-HCMV EC50
[3] = tested on: MCMV; conditions: read-out: EC50 for MCMV, cited from earlier work
[4] = tested on: MCMV; conditions: sub-lethal MCMV infection in mice; ref Go et al., 2011; cited from earlier work
[5] = human, in vivo; cited from earlier work

Compound | Yield inhibition MRC-5 TD50 [1] | Spread inhibition MRC-5 TD50 [1] | cytotoxicity TD50 fold higher than antiviral EC50 [2] | pEC50 ([3]; ref Go et al., 2011) | viral load in livers and spleen [4] | peak plasma level [5] | pEC50 ([3]; ref Lembo et al., 2000) | peak plasma concentration [5]
N/C(=N\O)c1cc(O)c(O)c(O)c1 [TX, trimidox] | 166 ± 57 µM | 86 ± 4.2 µM | 1.5- to 2 fold and 2 fold |  |  |  |  | 
O=C(NO)c1ccc(O)c(O)c1 [DX, didox] | 256 ± 5.7 µM | 146 ± 0.7 µM | 1.5- to 2 fold and 2 fold | 4.60 to 5.00 | failed to decrease viral load in livers and spleen | approximately 300 µM |  | 
NC(=O)NO [HU, hydroxyurea] | 14,500 ± 5400 µM | 4253 ± 701 µM |  |  |  |  | 5.52 | 264 to 660 µM

From PMC3843955 (Antiviral research, 2013)
